Data on four compounds can be found in patent US20030064895A1, “Genes for s-adenosyl l-methionine: jasmonic acid carboxyl methyltransferase and a method for the development of pathogen-and stress-resistant plants using the genes” (priority 2000, published 2003).

Assay [1] deals with T1, JMT enzyme (GST-JMT) (Arabidopsis thaliana, UniProt Q9AR07).
T1 construct: it could be noted that this selected cDNA clone is a full-length cDNA clone; made in house; host or cells: E. coli BL21 (pGEX-2T, plasmid pGST-JMT)
T1 sequence (Q9AR07 1-389): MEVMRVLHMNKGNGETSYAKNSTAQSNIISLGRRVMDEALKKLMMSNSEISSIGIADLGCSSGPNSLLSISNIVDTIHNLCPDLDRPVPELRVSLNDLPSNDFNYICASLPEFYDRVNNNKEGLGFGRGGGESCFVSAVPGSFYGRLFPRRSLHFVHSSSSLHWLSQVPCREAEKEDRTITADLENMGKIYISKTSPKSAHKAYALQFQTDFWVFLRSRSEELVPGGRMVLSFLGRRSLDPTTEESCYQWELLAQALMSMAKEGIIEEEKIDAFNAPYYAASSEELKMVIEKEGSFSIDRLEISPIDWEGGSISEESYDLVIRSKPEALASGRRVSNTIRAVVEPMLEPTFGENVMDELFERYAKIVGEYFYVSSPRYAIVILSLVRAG
Put plainly: Substrate specificity of fusion enzyme protein GST-JMT with SAM / [14C]SAM. It is filed as biochemical. Conditions: reaction with JA defined to be 100%.

Assay [2] has as its system pathogens belonging to Phytium genus. The following applies: treatment at the level of 130 μM; cited from earlier work.
Assay [3] deals with T2, jasmonic acid carboxyl methyltransferase (Arabidopsis thaliana, UniProt Q9AR07).
T2 construct: it could be noted that this selected cDNA clone is a full-length cDNA clone; made in house; host or cells: E. coli BL21 (pGEX-2T, plasmid pGST-JMT)
T2 sequence (Q9AR07 1-389): T1 sequence (Q9AR07 1-389)
The experiment in a line: Kinetic parameters of recombinant JMT protein (Lineweaver-Burk plot). It is filed as biochemical. Conditions: named substance as substrate of recombinant JMT; for Km: SAM and JA as substrates.

“Also recorded” adds a separate entry of the source.

Turning to jasmonic acid [(±)JA], in assay [1], the “reactivity as methyl acceptor substrate of JMT enzyme” value (from here on “reactivity”) is given as “high reactivity”. The “effect on the growth of pathogen” value in assay [2] was “no effect”. Also, in assay [3], the Kcat turned out to be 15 s⁻¹, the Vm turned out to be 30 nmol/min and the Km came out at 38.5 µM.
With S-adenosyl methionine [SAM], in assay [3], the Kcat was 70 s⁻¹, the Vm is 84 nmol/min and the Michaelis-Menten constant (Km) was 6.3 µM.
Take `O=C(O)c1ccccc1` [BA, benzoic acid]: the “reactivity” value in assay [1] is “substantially not react; also recorded: substantially not proceeded”.
As to `O=C(O)c1ccccc1O` [SA, salicylic acid], in assay [1], the “reactivity” value is “substantially not react; also recorded: substantially not proceeded”.
